Counter-ions that a name gives are not always drawn.
Target: T1, PI3Kγ (p101/p110γ protein) (Homo sapiens, UniProt P48736)
T1 construct: HA; made in house; host or cells: Spodoptera frugiperda (Sf9) cells, baculovirus co-infection
Experiment: PI3Kγ In Vitro Kinase Assay
Type: biochemical
Settings: purified recombinant p101/p110γ with G protein β1/γ2 subunits; 20 μM ATP, 25 μM PIP2; 20 minutes at room temperature
Procedure: Spodtera frugiperda cells, grown in ESF921 media, were coinfected with baculovirus expressing a glu-tagged p101 and baculovirus expressing an HA-tagged p110γ, at a 3:1 ratio of p101 baculovirus to p110γ baculovirus. Sf9 cells were grown to 1×10^7 total cells/mL in 10L bioreactors and harvested 48-72 hours post infection. Samples of infected cells were then tested for expression of p101/p110γ PI3 kinase by immunoprecipitation and Western Blot analysis methods (see below). […] NaCl was added to 150 mM, and sodium cholate was added to 1% and mixed for another 45 minutes. The lysates were clarified by centrifugation for 25 minutes at 14,000 rpm. The lysates were then loaded over anti-glu-linked Protein-G Sepaharose beads (Covance Research Products, Richmond, Calif.) using 20 mL resin/50 g cell paste. […] PI3Kγ was eluted with 6 column volumes of wash buffer that contain 100 μg/mL of a peptide that competes for binding of the glu tag. […] The fractions were stored at -80° C. until further use. Spodtera frugiperda cells were coinfected with baculovirus expressing a glu-tagged G protein β1 and baculovirus expressing a G protein […] at a 1:1 ratio of glu-tagged G protein β1 baculovirus to G protein β2 baculovirus. Sf9 cells are grown in 10 L bioreactors and harvested 48-72 hours post infection. Samples of infected cells were tested for G protein β1/β2 expression by Western Blot analysis, as described below. Cell lysates were homogenized and loaded onto a column of glu-tagged beads as in Biological Example 1 and competed off the column with a glu peptide as described in Biological Example 1. The inhibitory properties of the compounds in Table 1 were assayed in an in vitro PI3K assay. In a 96-well polypropylene plate, each well was spotted with 2 μL of […] the desired final concentration of compound in DMSO. Purified recombinant p101/p110γ protein (0.03 μg; 2.7 nM) and G protein β1/γ2 subunits (0.09 μg; 57.7 nM) for each reaction was combined in the assay buffer (30 mM HEPES, 100 mM NaCl, 1 mM EGTA, and 1 mM DTT). ATP and [γ-^32P-ATP] (0.09 μCi) were added to this mixture so that the final ATP concentration in the reaction was 20 μM. Lipid micelles were formed by sonicating phosphatidylinositol-4,5-diphosphate (PIP2), phosphatidylethanolamine (PE), and Na-cholate in the assay buffer for 10 minutes, adding MgCL2 and incubating on ice for 20 minutes, for final concentrations of 25 μM PIP2, 300 [M PE, 0.02% Na-cholate, and 10 mM MgCl2 in the reaction. The reactions were started by adding equal volumes lipid and enzyme mixture in a total volume of 50 μL, allowed to run for 20 minutes at room temperature, and stopped with 100 μL 75 mM H3PO4. The lipid product was transferred to a glass fiber filter plate and washed with 75 mM H3PO4 several times. The presence of radioactive lipid product (PIP3) was measured by adding Wallac Optiphase mix to each well and counting in a Wallac 1450 Trilux plate reader (PerkinElmer Life Sciences Inc., Boston, Mass. 02118).

T1 sequence (P48736 whole entry, species assumed): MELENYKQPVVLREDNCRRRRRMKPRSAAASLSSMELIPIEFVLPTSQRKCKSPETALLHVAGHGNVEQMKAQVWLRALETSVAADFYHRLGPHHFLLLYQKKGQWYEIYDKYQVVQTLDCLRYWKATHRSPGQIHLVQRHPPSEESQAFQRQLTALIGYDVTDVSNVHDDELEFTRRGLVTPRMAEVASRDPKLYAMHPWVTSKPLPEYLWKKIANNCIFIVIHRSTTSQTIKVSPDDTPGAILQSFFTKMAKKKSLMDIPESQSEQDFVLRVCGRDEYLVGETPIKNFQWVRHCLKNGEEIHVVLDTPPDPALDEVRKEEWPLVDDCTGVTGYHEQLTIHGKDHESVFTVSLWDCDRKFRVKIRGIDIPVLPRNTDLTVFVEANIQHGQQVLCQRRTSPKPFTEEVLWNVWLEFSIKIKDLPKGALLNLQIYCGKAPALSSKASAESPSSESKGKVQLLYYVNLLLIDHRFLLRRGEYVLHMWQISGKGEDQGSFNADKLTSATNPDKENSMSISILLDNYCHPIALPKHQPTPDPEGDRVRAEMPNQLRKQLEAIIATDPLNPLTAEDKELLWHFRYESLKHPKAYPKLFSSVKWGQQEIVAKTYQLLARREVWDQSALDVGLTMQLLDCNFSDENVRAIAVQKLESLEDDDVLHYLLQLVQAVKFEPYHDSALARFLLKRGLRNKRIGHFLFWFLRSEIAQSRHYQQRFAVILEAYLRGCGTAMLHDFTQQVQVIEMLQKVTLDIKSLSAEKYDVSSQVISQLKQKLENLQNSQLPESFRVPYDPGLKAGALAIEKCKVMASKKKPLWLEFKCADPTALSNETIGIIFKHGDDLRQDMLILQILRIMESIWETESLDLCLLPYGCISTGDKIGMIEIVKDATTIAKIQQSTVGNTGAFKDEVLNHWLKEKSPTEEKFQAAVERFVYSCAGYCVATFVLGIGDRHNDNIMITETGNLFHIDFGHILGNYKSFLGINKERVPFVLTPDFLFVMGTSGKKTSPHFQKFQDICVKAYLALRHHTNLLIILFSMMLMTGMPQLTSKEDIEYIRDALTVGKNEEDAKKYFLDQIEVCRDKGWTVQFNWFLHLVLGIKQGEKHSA
T1 sequence (Q8WYR1 whole entry partner, species assumed): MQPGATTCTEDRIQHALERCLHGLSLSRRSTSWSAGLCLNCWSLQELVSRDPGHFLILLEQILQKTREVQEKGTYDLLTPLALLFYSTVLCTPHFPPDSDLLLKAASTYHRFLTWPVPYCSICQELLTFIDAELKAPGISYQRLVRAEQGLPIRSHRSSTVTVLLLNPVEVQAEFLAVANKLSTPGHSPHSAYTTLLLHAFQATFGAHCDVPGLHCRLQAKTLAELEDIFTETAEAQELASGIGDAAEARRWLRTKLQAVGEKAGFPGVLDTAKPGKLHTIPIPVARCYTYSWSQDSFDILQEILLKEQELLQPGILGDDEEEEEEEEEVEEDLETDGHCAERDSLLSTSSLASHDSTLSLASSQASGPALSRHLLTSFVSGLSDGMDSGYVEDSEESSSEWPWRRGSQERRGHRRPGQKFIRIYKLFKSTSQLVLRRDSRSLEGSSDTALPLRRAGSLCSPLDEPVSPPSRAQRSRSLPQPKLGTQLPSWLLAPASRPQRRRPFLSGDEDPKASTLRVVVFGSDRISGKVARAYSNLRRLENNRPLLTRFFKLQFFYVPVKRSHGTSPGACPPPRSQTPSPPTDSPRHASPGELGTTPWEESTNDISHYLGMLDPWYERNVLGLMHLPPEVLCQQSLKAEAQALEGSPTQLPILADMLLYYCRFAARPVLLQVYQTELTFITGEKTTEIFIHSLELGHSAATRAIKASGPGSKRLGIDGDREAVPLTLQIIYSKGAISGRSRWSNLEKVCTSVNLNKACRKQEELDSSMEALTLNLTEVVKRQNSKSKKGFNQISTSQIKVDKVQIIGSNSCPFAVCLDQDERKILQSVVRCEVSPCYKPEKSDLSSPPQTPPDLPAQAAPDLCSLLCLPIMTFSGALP

| Structure (SMILES) | IC50 [µM] |
| --- | --- |
| COc1cc(CCCN2C(=O)COc3ccc(C=C4SC(=S)NC4=O)cc32)cc(OC)c1OC [Example 124, 6-(4-Oxo-2-thioxo-thiazolidin-5-ylidenemethyl)-4-[3-(3,4,5-trimethoxy-phenyl)-propyl]-4H-benzo[1,4]oxazin-3-one] | 0.015 |
| CC(C)(C)OC(=O)CNC(=O)c1cc(CN2C(=O)COc3ccc(C=C4SC(=S)NC4=O)cc32)cc(C(C)(C)C)c1 [Example 59, {3-tert-Butyl-5-[3-oxo-6-(4-oxo-2-thioxo-thiazolidin-5-ylidenemethyl)-2,3-dihydro-1,4-benzoxazin-4-ylmethyl]-benzoylamino}-acetic acid tert-butyl ester] | 0.07 |
| O=C1NC(=S)OC1=Cc1ccc2c(c1)N(CC1CCCCC1)C(=O)CO2 [Example 261, 4-Cyclohexylmethyl-6-(4-oxo-2-thioxo-oxazolidin-5-ylidenemethyl)-4H-1,4-benzoxazin-3-one] | 0.002 |
| CN1CC(=O)N(Cc2ccccc2)c2cc(C=C3SC(=S)NC3=O)ccc21 [Example 197, 1-Benzyl-4-methyl-7-(4-oxo-2-thioxo-thiazolidin-5-ylidenemethyl)-3,4-dihydro-1H-quinoxalin-2-one] | 0.39 |
| O=C1NC(=S)SC1=Cc1cc(Cl)c2c(c1)N(Cc1ccccc1)C(=O)CO2 [Example 50, 4-Benzyl-8-chloro-6-(4-oxo-2-thioxo-thiazolidin-5-ylidenemethyl)-4H-1,4-benzoxazin-3-one] | 0.01 |
| COc1ccc(CN2C(=O)COc3ccc(C=C4SC(=S)NC4=O)cc32)cc1 [Example 182, 4-(4-Methoxy-benzyl)-6-(4-oxo-2-thioxo-thiazolidin-5-ylidenemethyl)-4H-1,4-benzoxazin-3-one] | 0.165 |
| CC(=O)OCc1ccccc1CN1C(=O)COc2ccc(C=C3SC(=S)NC3=O)cc21 [Example 22, Acetic acid 2-[3-oxo-6-(4-oxo-2-thioxo-thiazolidin-5-ylidenemethyl)-2,3-dihydro-1,4-benzoxazin-4-ylmethyl]-benzyl ester] | 0.017 |
| Cc1cc(C=C2SC(=O)NC2=O)cc2c1OCC(=O)N2Cc1cc(C(C)(C)C)nc(C(C)(C)C)c1 [Example 224, 5-[4-(2,6-Di-tert-butyl-pyridin-4-ylmethyl)-8-methyl-3-oxo-3,4-dihydro-2H-1,4-benzoxazin-6-ylmethylene]-thiazolidine-2,4-dione] | 0.255 |
| Cc1cc(C=C2SC(=S)NC2=O)cc2c1OCC(=O)N2 [Example 154, 8-Methyl-6-(4-oxo-2-thioxo-thiazolidin-5-ylidenemethlyl)-4H-benzo[1,4]oxazin-3-one] | 0.16 |
| O=C1NC(=S)S/C1=C\c1ccc2oc(=O)n(Cc3ccccc3)c2c1 [Example 290, 3-Benzyl-5-[4-oxo-2-thioxo-thiazolidin-(5Z)-ylidenemethyl]-3H-benzooxazol-2-one; Compound with Ethane-1,2-diamine] | 0.243 |
| CC(C)(C)c1cc(CN2C(=O)COc3c(F)cc(C=C4SC(=S)NC4=O)cc32)cc(C(C)(C)C)n1 [Example 220, 4-(2,6-Di-tert-butyl-pyridin-4-ylmethyl)-8-fluoro-6-(4-oxo-2-thioxo-thiazolidin-5-ylidenemethyl)-4H-1,4-benzoxazin-3-one] | 0.495 |
| Cc1cc(C)cc(CN2C(=O)COc3c(Cl)cc(C=C4SC(=S)NC4=O)cc32)c1 [Example 67, 8-Chloro-4-(3,5-dimethyl-benzyl)-6-(4-oxo-2-thioxo-thiazolidin-5-ylidenemethyl)-4H-1,4-benzoxazin-3-one] | 0.06 |
| O=C1NC(=S)SC1=Cc1ccc2c(c1)N(Cc1ccccc1SC(F)(F)F)C(=O)CO2 [Example 169, 6-(4-Oxo-2-thioxo-thiazolidin-5-ylidenemethyl)-4-(2-trifluoromethylsulfanyl-benzyl)-4H-1,4-benzoxazin-3-one] | 0.008 |
| O=C1NC(=S)SC1=Cc1ccc2c(c1)N(Cc1cccc(OC(F)(F)F)c1)C(=O)CO2 [Example 156, 6-(4-Oxo-2-thioxo-thiazolidin-5-ylidenemethyl)-4-(3-trifluoromethoxy-benzyl)-4H-1,4-benzoxazin-3-one] | 0.021 |
| CC(=O)Oc1ccc(CN2C(=O)COc3ccc(C=C4SC(=S)NC4=O)cc32)cc1 [Example 248, Acetic acid 4-[3-oxo-6-(4-oxo-2-thioxo-thiazolidin-5-ylidenemethyl)-2,3-dihydro-1,4-benzoxazin-4-ylmethyl]-phenyl ester] | 0.021 |
| CS(=O)(=O)c1ccc(CN2C(=O)COc3ccc(C=C4SC(=S)NC4=O)cc32)cc1 [Example 193, 4-(4-Methanesulfonyl-benzyl)-6-(4-oxo-2-thioxo-thiazolidin-5-ylidenemethyl)-4H-1,4-benzoxazin-3-one, Potassium Salt] | 0.006 |
| CC(=O)c1cc(CN2C(=O)COc3ccc(C=C4SC(=S)NC4=O)cc32)cc(C(C)(C)C)c1 [Example 64, 4-(3-Acetyl-5-tert-butyl-benzyl)-6-(4-oxo-2-thioxo-thiazolidin-5-ylidenemethyl)-4H-1,4-benzoxazin-3-one] | 0.016 |
| O=C1CSc2ccc(C=C3SC(=S)NC3=O)cc2N1 [Example 83, 6-(4-Oxo-2-thioxo-thiazolidin-5-ylidenemethyl)-4H-1,4-benzothiazin-3-one] | 0.26 |
| O=C1NC(=S)SC1=Cc1cc(F)c2c(c1)N(Cc1ccc(F)cc1)C(=O)CO2 [Example 301, 8-Fluoro-4-(4-fluoro-benzyl)-6-(4-oxo-2-thioxo-thiazolidin-5-ylidenemethyl)-4H-benzo[1,4]oxazin-3-one] | 0.001 |
| O=C1NC(=O)C(=Cc2cc(F)c3c(c2)N(Cc2ccc(F)cc2)C(=O)CO3)S1 [Example 298, 5-[8-Fluoro-4-(4-fluoro-benzyl)-3-oxo-3,4-dihydro-2H-benzo[1,4]oxazin-6-ylmethylene]-thiazolidine-2,4-dione] | 0.001 |
| COc1cc(C=C2SC(=S)NC2=O)cc2c1OCC(=O)N2Cc1cc(C(C)(C)C)cc(C(C)(C)C)c1 [Example 51, 4-(3,5-Di-tert-butyl-benzyl)-8-methoxy-6-(4-oxo-2-thioxo-thiazolidin-5-ylidenemethyl)-4H-1,4-benzoxazin-3-one] | 0.165 |
| O=C1NC(=S)OC1=Cc1cc(F)c2c(c1)N(Cc1ccc(F)c(Cl)c1)C(=O)CO2 [Example 300, 4-(3-Chloro-4-fluoro-benzyl)-8-fluoro-6-(4-oxo-2-thioxo-oxazolidin-5-ylidenemethyl)-4H-benzo[1,4]oxazin-3-one] | 0.003 |
| O=C(O)CN1C(=O)COc2ccc(C=C3SC(=S)NC3=O)cc21 [Example 3, [3-Oxo-6-(4-oxo-2-thioxo-thiazolidin-5-ylidenemethyl)-2,3-dihydro-1,4-benzoxazin-4-yl]-acetic acid] | 0.635 |
| CC1Oc2ccc(C=C3SC(=S)NC3=O)cc2N(Cc2ccc(CN3CCN(C)CC3)cc2)C1=O (stereo not drawn) [Example 223, 2-Methyl-4-[4-(4-methyl-piperazin-1-ylmethyl)-benzyl]-6-(4-oxo-2-thioxo-thiazolidin-5-ylidenemethyl)-4H-1,4-benzoxazin-3-one] | 0.295 |
| CC(=O)Oc1c(C)cc(CN2C(=O)COc3ccc(C=C4SC(=S)NC4=O)cc32)cc1C [Example 126, Acetic acid 2,6-dimethyl-4-{3-[3-oxo-6-(4-oxo-2-thioxo-thiazolidin-5-ylidenemethyl)-2,3-dihydro-benzo[1,4]oxazin-4-yl]-methyl}-phenyl ester] | 0.01 |
| CC(C)(C)c1cc(CN2C(=O)COc3ccc(C=C4OC(=S)NC4=O)cc32)cc(C(C)(C)C)c1 [Example 247, 4-(3,5-Di-tert-butyl-benzyl)-6-(4-oxo-2-thioxo-oxazolidin-5-ylidenemethyl)-4H-1,4-benzoxazin-3-one] | 0.01 |
| O=C1NC(=S)SC1=Cc1cc(F)c2c(c1)N(Cc1ccc(CN3CCOCC3)cc1)C(=O)CO2 [Example 71, 8-Fluoro-4-(4-morpholin-4-ylmethyl-benzyl)-6-(4-oxo-2-thioxo-thiazolidin-5-ylidenemethyl)-4H-1,4-benzoxazin-3-one] | 0.006 |

Reference: US7205295B2, “Benzoxazin-3-ones and derivatives thereof as therapeutic agents” (Warner-Lambert Company LLC, priority 2002, dated 2007)
